In patent publication US9611246B2, “Compositions, apparatus, systems, and methods for resolving electronic excited states” (HALLSTAR INNOVATIONS CORP., priority 2012, dated 2017):

Tests used:
[1] = UV and visible light absorption spectra of stabilizers; assay type: physicochemical; settings: acetonitrile
Experimental: UV and visible light absorption spectra were recorded to investigate to what extent each stabilizer itself absorbs UV light. […] Protoporphyrin IX has weak absorption bands above 450 nm, where the two compounds are transparent (FIG. 2). The compound with the oxygen bridge (Formula II(d)(1)) caused a bathocromic shift of the UV absorption of the lowest energy band. The compound with the sulfur bridge (Formula II(e)(1)) shifted the lowest energy band further into the visible region.

[2] = Singlet oxygen generation by stabilizers upon direct UV photolysis at 355 nm; assay type: physicochemical; settings: air saturated CCl4, benzophenone as reference
Experimental: To investigate to what extent the stabilizers can generate singlet oxygen upon direct UV photolysis, singlet oxygen phosphorescence measurements were performed under photolysis at 355 nm. For these experiments CCl4 was selected as solvent, because of the long lifetime of singlet oxygen in this solvent, which makes these experiments easier to perform. Weak singlet oxygen signals were observed upon photolysis at 355 nm (FIG. 12). Using benzophenone as reference (quantum yield of singlet oxygen generation: 0.35) the low quantum yields of singlet oxygen generation were estimated: compound of Formula I(a)(1): 0.015 and alkoxy crylene: ˜0.001.
To ensure that the observed weak singlet oxygen signals truly originated from the two compounds and not from possible impurities in the sample or solvent, singlet oxygen phosphorescence excitation spectra were recorded.

[3] = Singlet oxygen phosphorescence from photoexcited protoporphyrin IX in air saturated DMSO-d6; assay type: physicochemical
From the text: Singlet oxygen was generated by pulsed laser excitation in the UV (355 nm) by protoporphyrin IX. Protoporphyrin IX was selected on the basis of its high extinction coefficient (FIG. 2). The solvent DMSO-d6 was selected because of good solubility of the sensitizer and stabilizers. The deuterated form of DMSO was used because of the longer singlet oxygen lifetime in deuterated solvents compared to solvents containing hydrogen. FIG. 10 and FIG. 11 show kinetic traces of singlet oxygen phosphorescence generated from photoexcitation of protoporphyrin IX. […] Excited state quenching of the protoporphyrin IX by the two compounds is unlikely to occur at these low stabilizer concentrations (μM).
In the previous experiments, singlet oxygen was generated by pulsed laser excitation in the UV spectral region (355 nm) of protoporphyrory IX. […] This was explained by a simple optical screening mechanism, where the compound of Formula I(a)(1) and alkoxy crylene absorb the UV light.
In this example, laser excitation was performed with visible light at 532 nm, where the compound of Formula I(a)(1) and the alkoxy crylene compound are transparent. […] The absence of singlet oxygen suppression with 532 nm excitation supports the optical screening mechanism with 355 nm excitation. […]

[4] = Singlet oxygen phosphorescence from protoporphyrin IX dimethyl ester in air saturated CDCl3, 532 nm; assay type: physicochemical; settings: MePPIX 25 μM
Experimental: Singlet oxygen phosphorescence experiments were performed to investigate if the large differences in triplet quenching rate constants have an impact on the observed singlet oxygen yields. The dimethyl ester derivative of PPIX (MePPIX, Formula IV(c)) was selected as sensitizer, because of better solubility in a solvent with long singlet oxygen lifetime (CDCl3).
The excited state properties of protoporphyrin IX should not be effected by the methyl ester functionality. Air saturated CDCl3 of MePPIX were excited with a pulsed Nd-YAG laser with visible light at 532 nm, where the stabilizers are mostly transparent. […] The lack of singlet oxygen suppression is consistent with the lack of observable quenching of singlet or triplet excited states of PPIX by alkoxy crylene.

[5] = system: visible light-induced free radicals in pig skin; test: Visible light-induced free radicals in ALA-treated pig skin by Electron Spin Resonance; settings: for Free Radicals (%): relative to 0 mM; for Free Radicals (a.u.): topical, ALA-treated pig skin
Experimental: A conjugated fused tricycle compound according to Formula II(a)(1) reduced visible light-induced free radicals in skin by up to 89% and did so in a dose-dependent manner (FIG. 21). The study was conducted using pig skin, which is recognized for its similarity to human skin. Topical application of aminolevulinic acid (ALA) induced the skin to over-produce the endogenous photosensitizer Protoporphyrin IX (PPIX). Solutions of Formula II(a)(1) at different concentrations were then topically applied to the ALA treated skin after which it was exposed to bright green light. The resulting free radical content of the skin was then measured by Electron Spin Resonance (ESR). Studies conducted in solution have shown that Formula II(a)(1) suppresses singlet oxygen production by PPIX. […] The mechanisms of action of Formula II(a)(1) and Tocopherol are different: the former prevents free radicals from forming; the latter scavenges free radicals after they appear.

[6] = Solubility in DMSO, PBS buffer and cell culture media; assay type: physicochemical
Experimental: All Conjugated fused polycyclic compounds tested (including Formulas II(a)(1), II(b)(1) and II(c)(1), and II(bk)) are highly soluble in DMSO, but poorly soluble in PBS buffer and cell culture medium. Formulas II(b)(1) and II(c)(1) can remain soluble in PBS buffer or cell culture medium if its concentration is less 0.2 mM. At concentrations higher than 0.2 mM, the solution begins to cloud and become emulsion like. This emulsion is able to remain stable for as long as 8 hours. Formula II(bk) is less soluble in PBS buffer and cell culture medium. It was only observed to dissolve in PBS at concentrations of 0.1 mM or less. Similar to Formulas II(b)(1) and II(c)(1), increasing Formula II(bk) concentration above 0.1 mM results in a cloudy emulsion like solution. But this cloudy solution is fairly stable and can be kept for more than 3 days.

HaCat cells = test: Dark toxicity analysis in HaCat cells (no irradiation); assay type: cell-based, human; settings: 1 mM with ALA, no red light irradiation
Experimental: To make sure that ALA and conjugated fused polycyclics treatments themselves are not influencing cell viability, (or cause cellular toxicity), dark toxicity analysis was performed. The experiment procedures were exactly same as above for cell viability analysis except that the red light irradiation step was omitted.

Row | SMILES | λmax [1] [nm] | extinction coefficient (molar absorptivity) ([1]; at λmax) | quantum yield of singlet oxygen generation [2] | singlet oxygen phosphorescence ([3]; 355 nm excitation, 250 μM stabilizer) | concentration above which the amount of generated singlet oxygen was reduced ([3]; 532 nm excitation) | suppression of singlet oxygen generation [4] | Free Radicals (%) ([5]; 1.25 mM) | Free Radicals (a.u.) ([5]; 1.25 mM) | Free Radicals (%) ([5]; 2.5 mM) | Free Radicals (a.u.) ([5]; 2.5 mM) | Free Radicals (%) ([5]; 5 mM) | Free Radicals (a.u.) ([5]; 5 mM) | Free Radicals (%) ([5]; 10 mM) | Free Radicals (a.u.) ([5]; 10 mM) | reduction of visible light-induced free radicals in skin ([5]; dose-dependent, maximum) | free radical reduction compared with Tocopherol ([5]; same conditions) | solubility in PBS buffer and cell culture medium (in words) [6] | stability of solution ([6]; 0.05 mM in PBS buffer) | precipitation ([6]; one hour after adding to PBS buffer or cell culture medium) | dark toxicity (HaCat cells)
1 | COC(=O)C(C#N)=C1c2ccccc2-c2ccccc21 [Formula I(a)(1)] | 334 | 16,200 M −1 cm −1 | 0.015 | significantly reduced singlet oxygen phosphorescence | above 3 mM | – | – | – | – | – | – | – | – | – | – | – | – | – | – | –
2 | COC(=O)C(C#N)=C1c2ccccc2C(=O)c2ccccc21 [Formula II(a)(1)] | – | – | – | – | – | largest suppression | 92 | 2311 ± 331 | 46 | 1162 ± 225 | 11 | 270 ± 88 | 19 | 475 ± 212 | up to 89% | superior to Tocopherol | especially difficult to dissolve | not observed to be stable for long | almost all Formula II(a)(1) precipitatde | a little toxicity
